In ChEMBL document CHEMBL4417631, “Oral peptide inhibitors of interleukin-23 receptor and their use to treat inflammatory bowel diseases” (2017):
*1 amine or outer side, *2 acyl side, *3 side chain or, on linkers, in order; H or OH if unused. Where a SMILES comes first, the peptide text is derived from it. Bridges are numbered along the chain shown (N, C = ends). [ ]: non-standard residue; d: D form. Abu(4-yl) = O=C([C@H](CC[*:3])N[*:1])[*:2]; AEF = NCCOc1ccc(C[C@H](N)C(=O)O)cc1; Tic = O=C(O)[C@@H]1Cc2ccccc2CN1; αMeK = C[C@](N)(CCCCN)C(=O)O; Dap = NC[C@H](N)C(=O)O

Molecular target: T1, Interleukin-23 receptor (Homo sapiens, UniProt Q5VWK5)
T1 sequence (Q5VWK5 whole entry): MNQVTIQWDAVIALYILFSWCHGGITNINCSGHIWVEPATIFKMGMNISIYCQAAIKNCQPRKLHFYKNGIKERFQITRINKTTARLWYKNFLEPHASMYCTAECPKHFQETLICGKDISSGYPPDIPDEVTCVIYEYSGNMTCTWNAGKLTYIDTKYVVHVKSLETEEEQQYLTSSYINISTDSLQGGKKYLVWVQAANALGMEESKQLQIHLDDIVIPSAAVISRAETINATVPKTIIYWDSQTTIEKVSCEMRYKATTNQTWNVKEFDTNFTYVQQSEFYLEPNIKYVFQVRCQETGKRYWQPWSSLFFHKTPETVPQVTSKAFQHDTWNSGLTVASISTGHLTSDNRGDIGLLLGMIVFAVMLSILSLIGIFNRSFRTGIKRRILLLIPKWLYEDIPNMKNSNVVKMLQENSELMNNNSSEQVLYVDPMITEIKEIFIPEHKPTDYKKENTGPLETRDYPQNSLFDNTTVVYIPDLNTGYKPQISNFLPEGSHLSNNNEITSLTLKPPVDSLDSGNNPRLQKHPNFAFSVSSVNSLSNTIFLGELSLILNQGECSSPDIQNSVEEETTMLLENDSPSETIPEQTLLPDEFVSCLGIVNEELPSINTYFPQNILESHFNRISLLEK
Assay: Inhibition of interleukin-23 binding to human interleukin-23 receptor incubated for 2 hrs by competitive binding ELISA

Row | SMILES | IC50
1 | CC(=O)N[C@@H](CS)C(=O)N[C@@H](CCC(N)=O)C(=O)N[C@H](C(=O)N[C@@H](Cc1c[nH]c2ccccc12)C(=O)N[C@@H](CCC(N)=O)C(=O)N[C@@H](CS)C(=O)N[C@@H](Cc1ccc(O)cc1)C(=O)N[C@@H](Cc1c[nH]c2ccccc12)C(=O)N[C@@H](CCCNC(=N)N)C(=O)N[C@@H](CCCN)C(=O)N[C@@H](CC(N)=O)C(=O)NCC(=O)NCCOCC(=O)N[C@H](CCCCN)C(N)=O)[C@@H](C)O | < 500 nM
2 | CCCCCCCCCCCCCCCC(=O)NCCCC[C@H](NC(=O)[C@H](CCCN)NC(=O)[C@H](Cc1c[nH]c2ccccc12)NC(=O)[C@H](Cc1ccc(O)cc1)NC(=O)[C@H](CS)NC(=O)[C@H](CCC(N)=O)NC(=O)[C@H](Cc1c[nH]c2ccccc12)NC(=O)[C@@H](NC(=O)[C@H](CCC(N)=O)NC(=O)[C@H](CS)NC(C)=O)[C@@H](C)O)C(=O)N[C@@H](CC(N)=O)C(=O)NCC(N)=O | > 6000 nM
3 | CC(=O)N[C@@H](CS)C(=O)N[C@@H](C)C(=O)N[C@@H](CC(=O)O)C(=O)N[C@@H](Cc1c[nH]c2ccccc12)C(=O)N[C@H](C(=O)N[C@@H](CS)C(=O)N[C@@H](Cc1ccc(O)cc1)C(=O)N[C@@H](Cc1c[nH]c2ccccc12)C(=O)N[C@@H](Cc1cnc[nH]1)C(=O)N[C@H](C(=O)N[C@@H](Cc1ccccc1)C(=O)NCC(=O)NCCCC(=O)N[C@H](CCCCN)C(=O)O)[C@@H](C)O)C(C)C | < 500 nM
4 | CC(=O)N[C@@H](CS)C(=O)N[C@@H](C)C(=O)N[C@@H](CC(=O)O)C(=O)N[C@@H](Cc1c[nH]c2ccccc12)C(=O)N[C@H](C(=O)N[C@@H](CS)C(=O)N[C@@H](Cc1ccc(O)cc1)C(=O)N[C@@H](Cc1c[nH]c2ccccc12)C(=O)N[C@@H](Cc1cnc[nH]1)C(=O)N[C@H](C(=O)N[C@@H](Cc1ccccc1)C(=O)NCC(=O)NCCOCC(=O)N[C@H](CCCCN)C(=O)O)[C@@H](C)O)C(C)C | < 500 nM
5 | CC(=O)NC1CC/C=C\CCCC(C(=O)N[C@@H](Cc2ccc(O)cc2)C(=O)N[C@@H](Cc2c[nH]c3ccccc23)C(=O)N[C@@H](CCCNC(=N)N)C(=O)N[C@@H](CCCCN)C(=O)N[C@@H](Cc2ccccc2)C(=O)NCC(=O)NCCOCC(=O)N[C@H](CCCCN)C(N)=O)NC(=O)[C@H](CCC(N)=O)NC(=O)[C@H](Cc2c[nH]c3ccccc23)NC(=O)[C@H]([C@@H](C)O)NC(=O)[C@H](CCCNC(=N)N)NC1=O (stereo partly drawn) | 1000 to 10000 nM
6 | CSC[C@H](NC(=O)[C@H](CCC(N)=O)NC(=O)[C@H](Cc1c[nH]c2ccccc12)NC(=O)[C@@H](NC(=O)[C@H](CCCNC(=N)N)NC(=O)[C@H](C)NC(C)=O)[C@@H](C)O)C(=O)N[C@@H](Cc1ccc(O)cc1)C(=O)N[C@@H](Cc1c[nH]c2ccccc12)C(=O)N[C@@H](CCCNC(=N)N)C(=O)N[C@@H](CCCCN)C(=O)N[C@@H](Cc1ccccc1)C(=O)NCC(=O)NCCOCC(=O)N[C@H](CCCCN)C(N)=O | 7570 nM
7 | CC(=O)NCCCC[C@H](NC(=O)[C@](C)(CCCCN)NC(=O)[C@@H]1Cc2ccccc2CN1C(=O)[C@H](Cc1ccc(OCCN)cc1)NC(=O)[C@@H]1CSCC[C@H](NC(C)=O)C(=O)N[C@@H](CN)C(=O)N[C@@H]([C@@H](C)O)C(=O)N[C@@H](Cc2c[nH]c3ccccc23)C(=O)N[C@@H](CCC(N)=O)C(=O)N1)C(=O)N[C@@H](CC(N)=O)C(=O)NCC(N)=O (Ac-[Abu(4-yl)][Dap]TWQC[AEF][Tic][αMeK]K(Ac)NG-NH2; thioether 1-6) | > 3000 nM
8 | NC(=O)CNC(=O)[C@H](Cc1ccc(O)cc1)NC(=O)[C@H](Cc1cnc[nH]1)NC(=O)[C@H](Cc1cnc[nH]1)NC(=O)[C@H](Cc1c[nH]c2ccccc12)NC(=O)[C@H](Cc1ccc(O)cc1)NC(=O)[C@H](CS)NC(=O)[C@H](CCC(=O)O)NC(=O)[C@H](Cc1c[nH]c2ccccc12)NC(=O)[C@H](CC(N)=O)NC(=O)[C@H](CO)NC(=O)[C@@H](N)CS (H-CSNWECYWHHYG-NH2) | 500 to 1000 nM
